Ten compounds from patent US7311893B2, “Amyloid targeting imaging agents and uses thereof” (Neurochem (International) Limited, priority 2000, dated 2007) can be followed below.

The subject of the assay is insoluble amyloid or amyloid plaques. Briefly: binding data for amyloid-targeting moieties (FIGS. 1 and 2). As to conditions: insoluble vs soluble amyloid; data in FIGS. 1 and 2.
Take `O=S(=O)(O)NCCCO` [3-hydroxypropylsulfamic acid]: the “binding to insoluble amyloid or amyloid plaques in preference to soluble amyloid” value (shortened to “binding”) is given as “bind insoluble amyloid or amyloid plaques in preference to soluble amyloid”. As for `O=S(=O)(O)CCCNC1(CO)CCCC1` [3-(1-hydroxymethyl-1-cyclopentyl)amino-1-propane sulfonic acid], the entry is “bind insoluble amyloid or amyloid plaques in preference to soluble amyloid”; as for `O=S(=O)(O)CCCN1CCN(CCCS(=O)(=O)O)CC1` [1,4-piperazinebis(propanesulfonic acid)], “bind insoluble amyloid or amyloid plaques in preference to soluble amyloid”.

Turning to `COC(=O)CCN1CCc2ccccc2C1.Cl` [methyl 2-(2-carboxyethyl)-1,2,3,4-tetrahydroisoquinoline hydrochloride], the “binding” value is “bind insoluble amyloid or amyloid plaques in preference to soluble amyloid”. As for `Cc1ccc2nc(-c3ccc(N=NNc4ccc(-c5nc6ccc(C)c(S(=O)(=O)[O-])c6s5)cc4)cc3)sc2c1S(=O)(=O)[O-].[Na+].[Na+]` [Thiazole yellow G, reference compound], the entry is “bind insoluble amyloid or amyloid plaques in preference to soluble amyloid”.

For the compound `O=S(=O)(O)CCCN1CC=CCC1` [3-[1-(1,2,3,6-tetrahydropyridinyl)]-1-propanesulfonic acid], the “binding” value is on record as “bind insoluble amyloid or amyloid plaques in preference to soluble amyloid”. Consider `O=S(=O)(O)CCCNCCCCCCO` [3-(6-hydroxy-1-hexyl)amino-1-propane sulfonic acid], for which the “binding” value is given as “bind insoluble amyloid or amyloid plaques in preference to soluble amyloid”. As for `O=S(=O)(O)CCCCN1CCCCC1` [4-(1-piperidinyl)-1-butanesulfonic acid], the “binding” value was “bind insoluble amyloid or amyloid plaques in preference to soluble amyloid”. Take 1,6-hexanedisulfonate: the “binding” value is reported as “bind insoluble amyloid or amyloid plaques in preference to soluble amyloid”.

In the case of `NCCCC[C@H](NCCCS(=O)(=O)O)C(=O)O` [alpha-N-(3-sulfopropyl)-L-lysine], the “binding” value is reported as “bind insoluble amyloid or amyloid plaques in preference to soluble amyloid”.
